Assay results published in publication PMC13267291, “In vivo functional profiling and structural characterization of the human GLP1R A316T variant” (Science Advances, 2026).

Columns and labels:
[1] = system: human GLP-1R A316T versus WT; assay: Insulin secretion assay in mouse islets; format: cell-based; details: chow-fed mouse islets; 100 nM; 16 hours; n = 4; Fig. 5H
Experimental: Purified mouse islets used for insulin secretion assays were treated in 24-well nonadherent plates. Eight islets were used per replicate with three technical replicates per condition. For acute studies, islets were preincubated for 1 hour in KRBH buffer containing 0.1% (w/v) bovine serum albumin (BSA) (10775835001, Roche) and 3 mM glucose before incubation with 11 mM glucose ± 100 nM GLP-1RAs or the GLP-1R antagonist exendin-9 in KRBH buffer in a shaking 37°C water bath (80 rpm) for 1 hour. For overnight studies, preincubation was carried out in RPMI 1640 medium containing FBS, P/S, and 3 mM glucose, followed by treatment with medium supplemented with 11 mM glucose ± GLP-1RAs for 16 hours. Supernatants containing secreted insulin were collected, centrifuged at 1000 rpm for 1 min, and transferred to fresh tubes. For total insulin content, islets were lysed using acidic ethanol (75% ethanol, 1.5 mM HCl). Lysates were sonicated 3× 10 s each in a water bath and centrifuged at 10,000g for 10 min, and supernatants were collected. For human islets, the same experiment was performed with islets previously transduced with pAV-SNAP/FLAG-hGLP1R^WT or ^A316T adenoviruses (generated by VectorBuilder) at a multiplicity of infection of 1, 24 hours before the start of experiments. Insulin secretion assays with the human EndoC-βH3 cell line were performed following 3 weeks of treatment with 4-hydroxytamoxifen as above, followed by transduction with pAV-SNAP/FLAG-hGLP1R^WT or ^A316T adenoviruses, with insulin secretion assessed as previously described ([54]), with the following modifications: After preincubation with 0.5 mM glucose KRBH buffer, cells were stimulated with 15 mM glucose ± exendin-4 for 60 min. Total and secreted insulin samples from islets and cells were stored at −20°C until quantification using an Insulin Ultra-Sensitive HTRF kit (#62IN2PEG, Revvity) in a PHERAstar plate reader (BMG Labtech), according to the manufacturer’s instructions.

[2] = system: hGLP1R^A316T/A316T versus hGLP1R^+/+ mice; assay: IPGTT acutely and 6 hours after GLP-1RA, chow-fed homozygous mice; format: in vivo, mouse; details: chow diet; for Agonist-specific glycemic response (ΔAUC), 6-hour time point, A316T/A316T versus +/+: IPGTT 6 hours postadministration, n = 9; for Agonist-specific glycemic response (ΔAUC), 6-hour time point, A316T/A316T versus +/+ / Agonist-specific glycemic response (ΔAUC, agonist- minus vehicle-treated AUC), acute, A316T/A316T versus +/+: Fig. 1J,K; for Agonist-specific glycemic response (ΔAUC, agonist- minus vehicle-treated AUC), acute, A316T/A316T versus +/+: acute IPGTT, n = 9 per genotype
Experimental: To examine acute and prolonged glycemic responses to GLP-1RAs, animals were fasted for 2 hours, starting at 8 a.m. on the morning of the experiments, before IPGTTs. GLP-1RAs were then coadministered at the indicated concentrations with 20% (w/v) D-glucose via intraperitoneal injection at weight-adjusted volumes. Baseline glucose readings were taken via tail venipuncture, and subsequent readings were taken at various time points after glucose ± GLP-1RA administration as for the OGTTs (0-hour acute IPGTTs). For GLP-1RAs with shorter half-lives (exendin-4 and exendin-F1), IPGTTs were repeated 6 hours after the start of the initial IPGTT, with continued fasting. For the extended half-life GLP-1RA semaglutide, IPGTTs were performed 24 and 72 hours after GLP-1RA administration, with access to food restored at the end of each IPGTT. The in vivo IPGTT studies were performed with a crossover design, with each mouse receiving vehicle and each GLP-1RA treatment with washout periods of at least 1 week between the different GLP-1RA treatments.

| Substance | Agonist-mediated increase in glucose-stimulated insulin secretion (fold over 11 mM glucose) following overnight exposure, A316T/A316T versus +/+ islets [1] | Agonist-specific glycemic response (ΔAUC), 6-hour time point, A316T/A316T versus +/+ ([2]; 2 nmol/kg ip) | Agonist-specific glycemic response (ΔAUC, agonist- minus vehicle-treated AUC), acute, A316T/A316T versus +/+ ([2]; 2 nmol/kg ip) | IPGTT glucose responses (AUC), A316T/A316T versus +/+ ([2]; 2 nmol/kg ip, acutely and 6 hours postagonist, Fig. 1F-I) | Desensitization at the 6-hour IPGTT versus exendin-4 ([2]; both mouse genotypes) |
| --- | --- | --- | --- | --- | --- |
| exendin-4 | complete loss of the potentiating effect | paradoxical increase in blood glucose levels compared to vehicle | significantly reduced |  |  |
| exendin-F1 | no significantly detrimental effect | absent | similarly reduced | without reaching statistical significance | reduced desensitization |
